According to patent publication US20230293540A1, “ANTICOAGULANT COMPOUNDS, METHODS AND DEVICES FOR OPHTHALMIC USE” (Elixir Medical Corporation, priority 2020, published 2023):

What was measured:
[1] = Drug concentration in PEG 300 supernatant and precipitation in phosphate buffered saline (HPLC); type: physicochemical; settings: after 24 hours in DPBS
Method: The vial was sonicated with 40° C. heat for 30 minutes and then was placed in the 40° C. oven overnight for 20 hours. […] The crystal fine particles were verified by following. 100 µL of the clear PEG 300 solution was added to a vial with 4.3 mL of Dulbecco’s phosphate buffered saline to mimic the ophthalmic vitreous humor. […] The solution stands overnight for 24 hours at room temperature. […] The solution was then centrifuged, and the supernatant was analyzed by HPLC. […] The solution was sonicated 10 minutes until clear. […] The crystal fine particles were verified by following. […] The vial was sonicated with 40° C. heat for 30 minutes and then was placed in the 40° C. oven overnight for 20 hours.

[2] = system: Calcium-reconstituted sheep blood; assay: Activated clotting time (ACT) in calcium-reconstituted sheep blood; type: biochemical; settings: individual drug at 0.6 ng/mg
Method: The activated clotting time (ACT) evaluation of anticoagulants was performed in Calcium-reconstituted sheep blood and recorded employing the Hemochron® Response device. […] A target amount of drug solution was then added into the test tube. […] The tube was gently shaken before being inserted into the Hemochron Response detector. The ACT read out was recorded and reported. The ACT of the control blood in the absence of any drug as first determined to establish a baseline. Then ACT was determined in the presence of different concentrations of the drug as a single component. Selected drug combinations, were then tested to evaluate for potential synergy in action between the two drugs.

[3] = system: porcine coronary artery; assay: Histopathology scores and QCA of anticoagulant eluting stents in porcine coronary artery model (Examples 2, 3); type: in vivo
Method: The mean score was calculated and reported. […] The smaller the fibrin score, the better efficacy.

[4] = In vivo drug released from / remaining on stent (HPLC); parameters: species or system porcine
Text: The stented artery was cut longitudinally with surgical scissors. The stents were separated from the tissue.

[5] = Example 3 stent, within 28 days

**Q.** Which “Fraction precipitated out to crystalline form” value [1] does the source give for `COc1ccc(-n2nc(C(N)=O)c3c2C(=O)N(c2ccc(N4CCCCC4=O)cc2)CC3)cc1` [Apixaban] here?
**A.** 33%

**Q.** What about the ACT [2] of the same compound?
**A.** 522

**Q.** Which “Inhibition of fibrin formation compared to bare metal control stents” value ([3]; 7 days) does the source give for `CC1CNc2c(cccc2S(=O)(=O)N[C@@H](CCCNC(=N)N)C(=O)N2CC[C@@H](C)C[C@@H]2C(=O)O)C1` (stereo partly shown) [Argatroban] here?
**A.** not more effective

**Q.** And the ACT [2]?
**A.** 301

**Q.** With `O=C(NC[C@H]1CN(c2ccc(N3CCOCC3=O)cc2)C(=O)O1)c1ccc(Cl)s1` [Rivaroxaban] as the compound, how does the “Rivaroxaban amount released from stent” value ([4]; Example 3 stent, in combination with m-TOR inhibitor formulation, within 7 days) read?
**A.** about 68.1 µg

**Q.** What about the “Percent of rivaroxaban released from stent” value [4, 5] of the same compound?
**A.** about 92.5%

**Q.** What about the “Rivaroxaban dose released from stent” value [4, 5] of the same compound?
**A.** about 92.5 µg

**Q.** What about the “Cumulative Percent Release of drug by day 7, Rivaroxaban” value ([4]; Rivaroxaban/Argatroban combination stent) of the same compound?
**A.** about 70.9%

**Q.** And the “Cumulative Percent Release of drug by day 7” value ([4]; single-drug stent)?
**A.** about 99.5%

**Q.** And the “Inhibition of fibrin formation compared to bare metal control stents” value ([3]; 7 days)?
**A.** more effective

**Q.** And the “Inhibition of fibrin formation compared to control” value ([3]; Example 3, fast release formulation, 7 days and/or 28 days)?
**A.** more effective

**Q.** Which “Inhibition of fibrin formation compared to bare metal control stents” value ([3]; 7 days) does the source give for Dalteparin here?
**A.** not more effective

**Q.** What about the “Inhibition of smooth muscle cell proliferation (LLL) compared to bare metal control stents” value ([3]; 7 days) of the same compound?
**A.** not more effective
